Where two headings read alike, the source gives them in different places.
Tests used:
[1] = tested on: male Ross 308 broilers with induced Necrotic Enteritis challenge (E. maxima, Clostridium perfringens); type: in vivo, broiler chickens
[2] = tested on: male Ross 308 broilers with induced Necrotic Enteritis challenge; parameters: species or system broiler chickens; settings: in vivo
Clostridium perfringens = type: in vivo
Bacillus spp. = assay: Molecular enumeration (quantitative PCR) in digesta; type: in vivo
male Ross 308 broilers = type: in vivo, broiler chickens; settings: 1-42 d
Vencobb 400 broilers = type: in vivo, broiler chickens
[3] = 1-35 days, necrotic enteritis challenge

**Q.** CC[C@@H](C(=O)O)[C@@H]1O[C@@H]([C@@H](C)[C@H](O)[C@H](C)C(=O)[C@H](CC)[C@H]2O[C@]3(C=C[C@@H](O)[C@]4(CC[C@@](C)([C@H]5CC[C@](O)(CC)[C@H](C)O5)O4)O3)[C@H](C)C[C@@H]2C)[C@@H](C)C[C@@H]1C [Narasin] was tested. Which “BW, average bird body weight” value [1, 3] did it give?
**A.** Its value is 2778.4 g.

**Q.** And the “FCR, feed conversion ratio (feed to gain)” value [1, 3]?
**A.** The value was 1.431 g/g.

**Q.** What about the “aFCR, feed conversion ratio adjusted for mortalities” value [1, 3] of the same molecule?
**A.** The value was 1.425 g/g.

**Q.** What about the “Mortality as a percentage of the pen population” value ([1]; day 11-35, necrotic enteritis challenge) of the same molecule?
**A.** The value was 1.3%.

**Q.** And the “Footpad Lesion Score (0-4)” value [2]?
**A.** Its value is 0.41.

**Q.** And the C. perfringens (Clostridium perfringens; Day 11 Cecum)?
**A.** The C. perfringens was 6.38 Log^10 of gene copies/g.

**Q.** What about the C. perfringens (Clostridium perfringens; Day 11 Ileum) of the same molecule?
**A.** Its C. perfringens is 4.18 Log^10 of gene copies/g.

**Q.** What about the C. perfringens (Clostridium perfringens; Day 18 Cecum) of the same molecule?
**A.** Its C. perfringens is 4.87 Log^10 of gene copies/g.

**Q.** What about the C. perfringens (Clostridium perfringens; Day 18 Ileum) of the same molecule?
**A.** The C. perfringens was 4.60 Log^10 of gene copies/g.

**Q.** What about the C. perfringens (Clostridium perfringens; Day 35 Cecum) of the same molecule?
**A.** The C. perfringens was 4.81 Log^10 of gene copies/g.

**Q.** And the C. perfringens (Clostridium perfringens; Day 35 Ileum)?
**A.** The C. perfringens was 4.03 Log^10 of gene copies/g.

**Q.** And the Bacillus spp. (Bacillus spp.; Day 11 Cecum)?
**A.** Its Bacillus spp. is 5.24 Log^10 of gene copies/g.

**Q.** What about the Bacillus spp. (Bacillus spp.; Day 11 Ileum) of the same molecule?
**A.** The Bacillus spp. was 5.68 Log^10 of gene copies/g.

**Q.** What about the Bacillus spp. (Bacillus spp.; Day 18 Cecum) of the same molecule?
**A.** The Bacillus spp. was 4.54 Log^10 of gene copies/g.

**Q.** And the Bacillus spp. (Bacillus spp.; Day 18 Ileum)?
**A.** Its Bacillus spp. is 4.94 Log^10 of gene copies/g.

**Q.** And the Bacillus spp. (Bacillus spp.; Day 35 Cecum)?
**A.** Its Bacillus spp. is 5.23 Log^10 of gene copies/g.

**Q.** And the Bacillus spp. (Bacillus spp.; Day 35 Ileum)?
**A.** The Bacillus spp. was 4.84 Log^10 of gene copies/g.

**Q.** How did the “BW, average bird body weight” value (male Ross 308 broilers) turn out when Zinc Bacitracin [ZnB] was run?
**A.** The value was 2988.0 g.

**Q.** And the “FCR, feed conversion ratio adjusted for mortalities” value (male Ross 308 broilers)?
**A.** Its value is 1.78 g/g.

**Q.** What about the Mortality (male Ross 308 broilers) of the same molecule?
**A.** The Mortality was 1.67%.

**Q.** With “Bacitracin Methylene Disalicyclate [BMD]” as the molecule, how does the “BW, average bird body weight” value (Vencobb 400 broilers; 1-21 d) read?
**A.** The value was 649.4 g.

**Q.** What about the “FCR, feed conversion ratio (feed to gain)” value (Vencobb 400 broilers; 1-21 d) of the same molecule?
**A.** The value was 1.45 g/g.

**Q.** What about the “BW, average bird body weight” value (Vencobb 400 broilers; 1-42 d) of the same molecule?
**A.** Its value is 2321.4 g.

**Q.** And the “FCR, feed conversion ratio (feed to gain)” value (Vencobb 400 broilers; 1-42 d)?
**A.** The value was 1.74 g/g.

Source: patent US11173184B2 (priority 2016, dated 2021)
